Tests used:
[1] = Fluorescence spectroscopy (emission, relative quantum yield, brightness); type: physicochemical; conditions: for ΦF, relative fluorescence quantum yield: MeOH, ICG as standard; for λmax, em: in methanol (Table 1); for ΦB, relative brightness referenced to ICG: product of quantum yield and molar absorptivity, ICG = 1
Description: UV-Vis and Fluorescent Spectroscopic Analysis. Stock solutions (3.0 mM) of the dye and its conjugates were prepared by dissolving them in DMSO. […] The molar extinction coefficient was obtained using Beer's law at 0.1-0.6 μM concentration of the dye. The relative fluorescence quantum yield was determined using the equation: ΦF(x)=(As/Ax)(Fx/Fs)(nx/ns)^2ΦF(s)
where ΦF(X) is the fluorescence quantum yield, A is the absorbance, F is the area under the emission curve, n is the refractive index of the solvents used in measurement, and the subscripts s and x represent the standard and unknown, respectively. Indocyanine green (ICG) was used as a reference standard.

[2] = UV-Vis absorption spectroscopy; type: physicochemical; conditions: for ε / λmax: in 25% aqueous DMSO
Description: UV-Vis and Fluorescent Spectroscopic Analysis. Stock solutions (3.0 mM) of the dye and its conjugates were prepared by dissolving them in DMSO. […] The molar extinction coefficient was obtained using Beer's law at 0.1-0.6 μM concentration of the dye. […]

**Q.** For CC1(C)C(=CC=C2CCCC(C=CC3=[N+](CCCS(=O)(=O)[O-])c4ccc5ccccc5c4C3(C)C)=C2c2ccc(C(=O)O)cc2)N(CCCS(=O)(=O)[O-])c2ccc3ccccc3c21.[Na+] [Dye 2a], which “ΦF, relative fluorescence quantum yield” value [1] is on record?
**A.** 0.088

**Q.** What about the “λmax, em” value [1] of the same molecule?
**A.** 811 nm

**Q.** What about the “ΦB, relative brightness referenced to ICG” value [1] of the same molecule?
**A.** 1.3

**Q.** And the “λmax, abs” value [2]?
**A.** 800 nm

**Q.** And the ε [2]?
**A.** 240 000 M^−1 cm^−1

**Q.** What about the λmax [2] of the same molecule?
**A.** 800 nm

**Q.** With CC1(C)C(=CC=C2CCCC(C=CC3=[N+](CCCCS(=O)(=O)[O-])c4ccc(S(=O)(=O)[O-])cc4C3(C)C)=C2c2ccc(C(=O)O)cc2)N(CCCCS(=O)(=O)[O-])c2ccc(S(=O)(=O)[O-])cc21.[Na+].[Na+].[Na+] [Dye 2c] as the molecule, how does the “ΦF, relative fluorescence quantum yield” value [1] read?
**A.** 0.10

**Q.** What about the “λmax, em” value [1] of the same molecule?
**A.** 785 nm

**Q.** What about the “ΦB, relative brightness referenced to ICG” value [1] of the same molecule?
**A.** 1.4

**Q.** And the “λmax, abs” value [2]?
**A.** 770 nm

**Q.** And the ε [2]?
**A.** 220 000 M^−1 cm^−1

**Q.** What about the λmax [2] of the same molecule?
**A.** 770 nm

**Q.** For CC1(C)C(/C=C/C=C/C=C/C=C2\N(CCCCS(=O)(=O)O)c3ccc4ccccc4c3C2(C)C)=[N+](CCCCS(=O)(=O)[O-])c2ccc3ccccc3c21 [ICG, indocyanine green, reference compound], which “λmax, em” value [1] is on record?
**A.** 807 nm

**Q.** What about the “ΦB, relative brightness referenced to ICG” value [1] of the same molecule?
**A.** 1

**Q.** And the “ε (molar absorptivity)” value [2]?
**A.** 204000 M⁻¹ cm⁻¹

**Q.** What about the “λmax, abs” value [2] of the same molecule?
**A.** 785 nm

**Q.** What does the source list for CC1(C)C(=CC=C2CCCC(C=CC3=[N+](CCCCS(=O)(=O)[O-])c4ccc5ccccc5c4C3(C)C)=C2c2ccc(C(=O)O)cc2)N(CCCCS(=O)(=O)[O-])c2ccc3ccccc3c21.[Na+] [Dye 2b]?
**A.** ΦF, relative fluorescence quantum yield [1]: 0.092; λmax, em [1]: 811 nm; ΦB, relative brightness referenced to ICG [1]: 1.4; λmax, abs [2]: 800 nm; ε [2]: 240 000 M^−1 cm^−1; λmax [2]: 800 nm

— US8344158B2, “Fluorescent polymethine cyanine dyes” (Washington University, priority 2007, dated 2013)
